We go through one substance from PMC8155056, “Cooperative inhibition of SNARE-mediated vesicle fusion by α-synuclein monomers and oligomers” (Scientific Reports, 2021).

Test [1] concerns SNARE-mediated vesicle fusion (v-vesicles without PS). Nature of the test: In vitro lipid-mixing (FRET) assay with v-vesicles prepared with 0% PS. The format is biochemical. The conditions noted are these: v-vesicles 0% PS. As for the experimental part:
Figure 3 α-Syn monomer interactions with the lipid membrane enable cooperative inhibition of vesicle fusion. (A) The effect of the lipid-binding-deficient mutant of the α-Syn monomer (T44P/A89P) on fusion inhibition. v-Vesicles (V) were incubated with the T44P/A89P monomer for 10 min, and then α-Syn oligomers and t-vesicles (T) were added to the premixture. T and V (20 μM lipid concentration) were mixed together at 37 °C without α-Syn (T-V, gray line). […] A control measurement using soluble Syb2 confirmed that lipid mixing was driven by SNARE complex formation (beige line). Bar graphs were obtained from the values at 2000s from the FRET measurements (± SEM, N = 3). *P < 0.05, **P < 0.01, ***P < 0.001 by Student’s t test. (B) The effect of the negatively charged lipid (PS) on fusion inhibition. v-Vesicles (V) prepared with 0% PS were used in the measurement. v-Vesicles without PS were incubated with wild-type α-Syn monomer, and then t-vesicles (T) and oligomers were added to the premixture. […]
(§1) t-Vesicles labeled with DiI and v-vesicles labeled with DiD were mixed together to reach a 20 μM lipid concentration. […] We used 532-nm light for excitation and detected the FRET signal (at 690 nm) every 10 s using a temperature-controlled fluorescence spectrophotometer (Cary Eclipse, Agilent) at 37 °C.

Test [2] has as its system neuronal SNARE-mediated vesicle fusion (t-SNAREs syntaxin HT/SNAP25 and v-SNARE Syb2). The experiment in a line: In vitro lipid-mixing (FRET) assay of SNARE-mediated vesicle fusion, v-vesicles with PS. In kind it is biochemical.
Source text: To address this question, we performed an in vitro lipid-mixing assay using fluorescently labeled proteoliposomes[31],[32]. In this assay, t-SNAREs [complexes of syntaxin Habc-trunctated (HT) (amino acids 168–288 of syntaxin 1A, lacking the Habc domain) and synaptosomal-associated protein-25 (SNAP25)] and v-SNARE Syb2 were incorporated into two different liposomes (t- and v-vesicles, respectively)[15],[31]. When t-vesicles doped with donor dyes (T) and v-vesicles doped with acceptor dyes (V) were fused together through SNARE complex formation[31],[33],[34], the lipids from the two types of vesicles mixed (Fig. 1B). This lipid mixing was monitored by the fluorescence resonance energy transfer (FRET) signal between 1,1′-dioctadecyl-3,3,3′,3′-tetramethylindocarbocyanine perchlorate (DiI) and 1,1′-dioctadecyl3,3,3′,3′-tetramethylindodicarbocyanine perchlorate (DiD) dyes (Supplementary Fig. S1B). α-Syn oligomers were prepared by incubating the α-Syn monomer (15 μM) with dopamine (100 μM) at 37 °C for 72 h (Supplementary Fig. S2A) and purified using size exclusion chromatography (Supplementary Fig. S2B and C)[15],[35]–[37]. We have estimated that the oligomers contain approximately 17 α-Syn monomeric subunits in our previous work[15]. Without the addition of α-Syn oligomers, the T-V mixture presented a significant mixing of lipids (Fig. 1C, the gray line).
We prepared three 30-residue peptides (CFα1, CFα2, and CFα3) that were mainly derived from the C-terminal domain of α-Syn (Anygen, South Korea) (Fig. 5A; Table 1) because the C-terminal domain of α-Syn (a.a. 96–140) is known to bind to the N-terminal domain of Syb2[26]. We confirmed the binding between the peptide and Syb2 using fluorescence anisotropy assay (Supplementary Fig. S8). […]
as §1

Test [3] has as its system SNARE-mediated vesicle docking. The conditions noted are these: nonaggregated α-Syn monomer, 10 μM; ref [42]; cited from earlier work. From the text: For the molecular mechanism of the inhibition, we proposed that α-Syn oligomers interfere with vesicle docking by clustering vesicles. […] Nonaggregated α-Syn or its monomer uses its interaction with Syb2 to help SNARE complex assembly[26] and induces the clustering of vesicles or Syb2, which promotes SNARE complex formation[25],[30]. […] All the functions of the α-Syn monomer are beneficial for neurotransmitter release.

A further test deals with Syb2-carrying v-vesicles. Nature of the test: Cryo-EM of v-vesicle clustering. As for the experimental part: Then, we tested the effect on vesicle clustering. We have proposed that α-Syn oligomers inhibit vesicle fusion by clustering synaptic vesicle mimics in vitro, thereby limiting the number of vesicles available for docking. A few micromolar α-Syn monomer is also known to induce vesicle clustering[27],[29],[30],[38]. Thus, it is possible that the α-Syn monomer by itself cannot induce vesicle clustering at the low concentration (less than 1 μM) that we applied in this work but assists α-Syn oligomers in clustering vesicles. We obtained images of v-vesicles treated with α-Syn oligomers in the presence and absence of monomers using cryo-electron microscopy (cryo-EM) (Fig. 2). The molar ratio of lipid: α-Syn oligomers: α-Syn monomers was 200:1:20. When more than ten vesicles were attached together, we assigned them as a vesicle clustering. In the absence of α-Syn, v-vesicles appeared without clustering (Fig. 2A). […] Cryo-EM could not resolve α-Syn oligomers because of its resolution limit. Since α-Syn oligomers are known to inhibit vesicle fusion through binding to the N-terminal domain of Syb2[15], we tested if their specific interactions with Syb2 are responsible for clustering the vesicles. We reconstituted v-vesicles with Syb2 lacking the N-terminal region (nt-Syb2, amino acids 29–116) and incubated them with α-Syn oligomers. […] While 22.7 ± 1.2 vesicles consisted of a cluster with α-Syn oligomers, 123.5 ± 11.5 vesicles clustered after the addition of α-Syn monomers together with oligomers. […] Although it is difficult to quantify the fraction of the flattened region, this structure was not observed in images of vesicles treated with α-Syn oligomers only (Fig. 2C, enlarged image). The addition of α-Syn monomer with α-Syn oligomers seemed to induce tighter adhesion between the vesicles.
v-Vesicles were incubated with α-Syn (molar ratio of lipid:α-Syn oligomer: monomer = 200:1:20). A 200-mesh carbon grid (Electron Microscopy Sciences) was glow-discharged using the PELCO easiGlow plasma cleaning system (Ted Pella, Inc.). […]

Test [4] has as its system α-Syn oligomers and monomers. Nature of the test: Western blot of α-Syn monomer incubated with preformed oligomers. Particulars: α-Syn monomer (500 nM) with preformed oligomers (10 nM), no dopamine, 37 °C, 12 h / up to 10 hours (Fig. S4). The protocol: We first tested whether the incubation of the α-Syn monomer with oligomers increases the amount of α-Syn oligomers. […] This is consistent with previous work showing that dopamine-modified α-Syn oligomers are not seeding competent.
Purified proteins were subjected to 15% SDS/PAGE and then transferred to polyvinylidene fluoride membranes (Bio-Rad), which were then blocked with 5% (w/v) skim milk in Tris-buffered saline with 0.1% Tween 20 detergent (TBST) (500 mM Tris, pH 8.5; 150 mM NaCl; […]) for 1 h and incubated with α-Syn primary antibody [sc-52979 (Santa Cruz Biotechnology) at a 1:750 dilution factor] for 12 h at 4 °C. The membrane was rinsed with TBST, incubated with anti-mouse IgG peroxidase secondary antibody (Sigma; 1:2500 dilution factor), washed again with TBST, and reacted with chemiluminescent substrate solution (ThermoFisher Scientific, SuperSignal West Pico Chemiluminescent Substrate) for 1 min. Resulting bands were detected using an LAS-4000 instrument (Fujifilm Life Science).
Fig. S4. […] Vesicle compositions are 73% PC, 20% cholesterol, and 7% PS. α-Syn monomers (500 nM) were incubated with the purified dopamine-induced oligomers (10 nM) at 37 ℃ for up to 10 hours and then the mixtures were applied to the Western blot analysis and probed with anti–α-Syn antibody. […] The image was edited by Adobe Illustrator CS6 (Adobe).

“Also recorded” adds a separate entry of the source.

For α-synuclein [α-Syn monomer], in test [1] (2 μM wild-type α-Syn monomer with α-Syn oligomers, 37 °C, at 2000 s, N = 3), the “recovery of SNARE-mediated lipid mixing” value is recorded as approximately 100%. Also, the “effect on fusion inhibition by oligomers” value is “the FRET signal increased; also recorded: attenuated” in test [1] (wild-type α-Syn monomer (200 nM to 2 μM) with α-Syn oligomers); “more severe inhibition of vesicle fusion between T and V was observed as the concentration of α-Syn monomer increased; also recorded: the FRET signal was lower than that of the α-Syn oligomer-treated vesicle fusion” in test [2] (wild-type α-Syn monomer together with 10 nM α-Syn oligomers, 37 °C). Also, the “fusion efficiency (relative lipid mixing)” value in test [2] (10 nM α-Syn oligomers + 850 nM α-Syn monomer, monomer pre-incubated with V 10 min, 37 °C, at 1800 s, N = 3) is on record as 25%. In test [2] (α-Syn monomer alone, 200–850 nM, 10 min incubation with v-vesicles, N = 3), the “effect on lipid mixing” value is “negligible effect on lipid mixing; also recorded: no effect on SNARE-mediated lipid mixing; also recorded: negligible effect on SNARE-mediated vesicle fusion”. Further, the “effect on SNARE-dependent vesicle docking” value in test [3] is on record as “beneficial for SNARE-dependent vesicle docking”. In addition, the “clustering of v-vesicles” value with Syb2-carrying v-vesicles (α-Syn monomer alone, lipid:monomer 10:1 (5 μM:0.5 μM)) is given as “no clustering of v-vesicles was observed”; in the test on Syb2-carrying v-vesicles (α-Syn monomer and oligomers, lipid:oligomers:monomers 200:1:20), “they formed larger clusters; also recorded: The vesicle cluster was significantly larger than that observed in (C)”. For the same substance, the “number of vesicles per cluster” value in the test with Syb2-carrying v-vesicles (α-Syn monomers together with oligomers, lipid:oligomers:monomers 200:1:20) amounted to 123.5 ± 11.5 vesicles. Besides, in test [4], the “change in amounts of oligomers and monomers” value was “No change in the intensities of the oligomers, multimers, and monomer was observed; also recorded: no change in the amounts of oligomers and monomers was observed”.
